Assay results: patent publication US10457702B2, “Dicaffeoyl spermidine cyclized derivatives and use thereof” (Jinan University, priority 2016, dated 2019)

Assays:
[1] = Oxygen radical absorbance capacity (ORAC) antioxidant experiment; details: for ORAC value (μmol TE/μmol): relative to Trolox standard, AAPH, fluorescein
Method: The antioxidant activity of the compounds was evaluated by using the oxygen radical absorbance capacity (ORAC) experiment. The detailed experimental procedure is as follows. 0.248 g of AAPH (2,2′-azobisisobutylamidine dihydrochloride) was added to a 50 mL phosphate buffer system to formulate a 18.3 mM AAPH stock solution. 20 μL of phosphate buffer, 20 μL solution of sample to be tested or standard substance Trolox (concentration of 6.25 μM) and 20 μL of fluorescent substance of disodium fluorescein (FL, concentration of 630 nM) were added into the wells of a 96-well plate in order. Then, 140 μL of AAPH (concentration of 18.3 mM) was quickly added to the wells of a 96-well plate, which was immediately placed in a GENios […] microplate reader manufactured by Tecan, Switzerland, the excitation wavelength was set as 485 nm and the emission wavelength was set as 527 nm. The fluorescence intensity was measured every 2 minutes and recorded for a total of 100 min.
The antioxidant capacity of the active substance is calculated as follows: Relative ORAC value=(AUCsample−AUCblank)/(AUCtrolox−AUCblank). Wherein, AUCsample refers to the integral area under the fluorescence decay curve of the test sample, AUCtrolox refers to the integral area under the fluorescence decay curve of the standard substance Trolox, and AUCblank refers to the integral area under the fluorescence decay curve when the test sample or the standard substance Trolox is not added.

[2] = tested on: Senile dementia fruit fly (Aβ42, P35*H29.3); experiment: Learning and memory (olfactory short-term memory, T-Maze performance index) of Senile dementia fruit fly; assay type: in vivo; details: for improvement of learning and memory function of Senile dementia fruit fly (in words): 100 μM, compared with untreated disease flies and positive control drug memantine; for PI (100 μM) learning and memory performance index: Senile dementia disease flies (P35*H29.3), drug administered at 100 μM, n = 6
Source text: (1) Cultivation of Senile Dementia Fruit Fly W^1118 (isoCJI), as a background fruit fly of control group in the experiment, was abbreviated as “2U”. The fruit flies that successfully introduced with the pathogenic Aβ42 protein were (UAS-Aβ42; abbreviated as “H29.3”). This strain of fruit flies was hybridized with the fruit fly expressing the Gal4 promoter in whole brain, and the fruit fly strain carrying elav-GAL4^[…] (P35) and Aβ42 was obtained. (2) Administration of Senile Dementia Fruit Fly Three groups of drug-free control of healthy fruit fly, drug-free control of disease fruit fly, and dose disease fruit fly were set in the experiment. All parents of tested fruit flies were housed and propagated at a constant temperature of 24° C. and a humidity of 42% RH (Relative humidity). On the first day after the emergence of the fruit flies, the fruit flies of control group and disease group, as well as the fruit flies to be administered were anesthetized with carbon dioxide, and the fruit flies of the correct characters were selected into the glass tube containing food. During the dosing period, all test fruit flies were kept in an incubator with a constant temperature of 28° C. and a constant humidity of 42% to ensure the drug taking efficiency of the fruit flies. Each day the fruit flies were administered for 4 hours, and the drug was administered from the second day after the fruit flies were selected until the 8th day. The drugs administered were prepared on the second day after the fruit fly selection, and were administered to the fruit flies on the day of preparation. The drugs were dissolved by 100% DMSO to a concentration of 10 mM. When preparing the working solution, the 10 mM stock solution was diluted to 100 μM with 4% sucrose. In addition, the fruit flies of control group were fed sucrose water containing 1% DMSO. For each Performance Index, two tubes of fruit fly groups are required, each tube containing about 100 fruit flies. Experiments were conducted in a light proof behavior room with constant temperature of 25 ° C., constant humidity of 70%. The method can be found in references ^[1-3]. 1) During the training stage, about 100 flies were loaded into a training tube provided with a copper mesh cross electrode. Two kinds of odors of octanol (OCT) and methylcyclohexanol (MCH) were successively introduced for each 60 s with an intervals for 45 s of fresh air. 60 V pulsed electrical shock stimulation (US, pulse duration 1.5 s, interval 3.5 s) was applied to the fruit flies while introducing the 1st odor. No electrical shock was applied when the second odor (CS-) was introduced. Thereby one training cycle was completed. 2) In the transient memory (learning) ability test, the fruit flies that completed one training cycle were immediately transferred to the selection point of T-Maze, while CS+ and CS- were introduced from the opposite two directions. After two minutes of selection, the fruit flies on both sides were collected separately and counted after anesthesia or sacrifice. […] When performing the activity test, the short-term memory deficit tests for the olfactory sensation of the non-administered healthy flies with the same genetic background (2U*H29.3), non-administered Senile dementia disease flies (P35*[…].3), and test drug administered Senile dementia disease flies were also conducted, and their total learning and memory performance indexes (PIs) was calculated respectively. […]

O=C(O[C@@H]1Cc2c(O)cc(O)cc2O[C@@H]1c1cc(O)c(O)c(O)c1)c1cc(O)c(O)c(O)c1 [EGCG, epigallocatechin gallate, reference compound]
ORAC value (μmol TE/μmol) [1]: 1.48 ± 0.02 μmol TE/μmol

O=C1/C=C/c2ccc(O)c(c2)Oc2cc(O[C@@H]3O[C@H](CO)[C@@H](O)[C@H](O[C@@H]4O[C@H](CO)[C@@H](O)[C@H](O)[C@H]4O)[C@H]3O)c(O)cc2CCC(=O)NCCCCNCCCN1 [Formula III]
ORAC value (μmol TE/μmol) [1]: 0.96 ± 0.03 μmol TE/μmol
improvement of learning and memory function of Senile dementia fruit fly (in words) [2]: superior to the positive control drug
PI (100 μM) learning and memory performance index [2]: 45.9 ± 1.9***

O=C1/C=C/c2ccc(O)c(c2)Oc2cc(O[C@@H]3O[C@H](CO)[C@@H](O)[C@H](O)[C@H]3O)c(O)cc2CCC(=O)NCCCCNCCCN1 [Formula II]
antioxidant activity (in words) ([1]; ORAC, compared with positive control EGCG): comparable to that of the positive control drug
ORAC value (μmol TE/μmol) [1]: 1.48 ± 0.01 μmol TE/μmol
improvement of learning and memory function of Senile dementia fruit fly (in words) [2]: significantly improve the learning and memory function
PI (100 μM) learning and memory performance index [2]: 37.1 ± 2.2**

CC12CC3CC(C)(C1)CC(N)(C3)C2 [Memantine, memantine, reference compound]
PI (100 μM) learning and memory performance index [2]: 44.2 ± 2.1***
